Results reported in article PMC11189555, “Aryl amino acetamides prevent Plasmodium falciparum ring development via targeting the lipid-transfer protein PfSTART1” (Nature Communications, 2024).

System: PopD C6 M-833 resistant clone (PfSTART1 N309K)
Experiment: Growth inhibition assay (72 h, LDH activity)
Type: cell-based, Plasmodium falciparum
Experimental: The drug was then removed, and parasites were allowed to recover. Another cycle of drug treatment (3 μM M-833) was then resumed. The resistant lines were cloned out by limiting dilution (diluting the culture into a 96-well plate to achieve an average of ~0.3 parasites per well), prior to growth inhibition assays and genomic DNA (gDNA) extraction (DNeasy Blood and Tissue kit (Qiagen)[18].
Parasite growth assays with inhibitory compounds were performed as per[11] and are fully described in the Supplementary Information.
Molecular biology and transfection of P. falciparum: CRISPR method.
The full 5’ homology region of pfstart1 (either WT, N309K or N330K) was amplified from pPfSTART1-HA-2A-Neo-glmS with the same 5’ BglII primer and a new 3’ primer that replaced with PstI with SpeI and introduced a stop codon. The PCR product was then digested with BglII and SpeI and inserted into similarly digested p1.2 parasite vector2. The p1.2 vector had previously been inserted with a homology region amplified from the 3’ end of the pfstart1 gene (3’HB) to form a second homology block for double recombination. The primers used to amplify 3’HB are listed primers listed in […]
60 μg of p1.2-PfSTART1(WT/N309K/N330K) plasmid was linearised with KasI, precipitated in 3 M sodium acetate and ethanol (70% final concentration) overnight at -20°C. The DNA pellet was washed in cold 70% ethanol and resuspended in cytomix 3.
50 μ M of crRNA ( Table S 2) and 50 μM of tracRNA (Integrated DNA Technologies) were allowed to form a duplex (5 min at 95°C), and Cas9 enzyme (Integrated DNA Technologies) was added, and incubated for 20 min at room temperature 4. This crRNA -tracRNA -Cas9 mix was added to each DNA preparation and transfected to 3D7 ring parasites using the Bio -Rad Gene Pulser at 310 V and 950 μF.
Parasites containing the transfected DNA were selected using 2.5 nM WR99210 (Jacobus). Parasites lines were cloned using limiting dilution. Correct integration was tested by PCR (using primer START_5’UTR.F and START_Int.R1 , Table S 2), and sequencing was done using the primers START_3F and START_Int.R2 (Table S 2).
Growth inhibition assays. Synchronised ring-stage parasites (0.3-0.6% parasitemia, 2% haematocrit) were grown for 72 h in a serial-dilution of the compound under […]
and compound 4. Note that M-833 was first purchased from MolPort (MolPort -002-267-916) then made in-house at WEHI: the differences observed in EC50s across experiments are attributed to the different batches of M -833. For some experiments, 0, 0.25 or 2.5 mM of glucosamine (GlcN) was also added. Experiments were set up in technical duplicates or triplicates. Following a freeze -thaw cycle, lactate dehydrogenase (LDH) activity was assessed as an indicator of parasite growt h 5. 30 μL of parasite culture was incubated for 30 min in the dark with 75 μL Malstat mixture (0.1 M Tris pH 9.0, 20 g/L lactic acid, pH 7.5, 0.2% Triton-X100, 0.5 g/L acetylpyridine adenine dinucleotide (APAD, Sigma), 200 μg/mL nitroblue tetrazolium (NBT; Sigma), 1 μg/mL phenozine ethosulfate (PES; Sigma)). Absorbance was then measured at 650 nm, transformed using the formula below, plotted against the logarithm of the concentrations, and a non-linear regression (log(inhibitor) vs. response, variable slope) was calculated using GraphPad Prism to assess the half-inhibitory […]
Growth inhibition % = (1 − average(sample)− average(uRBC)) ∗ 100 […]
The DMSO samples were also used to assess growth of parasite in the presence of 0.25 and 2.5 mM GlcN (normalised by DMSO in 0 mM GlcN).
Egress, invasion & recovery assay. To measure egress, invasion and follow up recovery in the presence of different compounds, we adapted the method developed in6, using Hyp1-Nluc parasites7. These parasites episomally express the exported PEXEL protein Hyp1 (PF3D7_0113300) tagged with a NanoLuc luciferase (NLuc) and were selected with 2.5 nM WR99210 (Jacobus). Highly synchronised schizonts were […]

## Cc1cc(Cl)c(S(=O)(=O)N2CCCC2)cc1OCC(=O)NC1CCCCC1 [M-833]
M-833 0.0390625 uM, Pop D-C6 replicate 1
  Normalised to DMSO: 106.597
M-833 0.0390625 uM, Pop D-C6 replicate 3
  Normalised to DMSO: 109.19
M-833 0.078125 uM, Pop D-C6 replicate 1
  Normalised to DMSO: 104.398
M-833 0.078125 uM, Pop D-C6 replicate 3
  Normalised to DMSO: 106.818
M-833 0.15625 uM, Pop D-C6 replicate 1
  Normalised to DMSO: 106.528
M-833 0.15625 uM, Pop D-C6 replicate 3
  Normalised to DMSO: 112.747
M-833 0.3125 uM, Pop D-C6 replicate 1
  Normalised to DMSO: 101.389
M-833 0.3125 uM, Pop D-C6 replicate 3
  Normalised to DMSO: 96.5909
M-833 0.625 uM, Pop D-C6 replicate 1
  Normalised to DMSO: 99.6991
M-833 0.625 uM, Pop D-C6 replicate 3
  Normalised to DMSO: 97.6285
M-833 1.25 uM, Pop D-C6 replicate 1
  Normalised to DMSO: 88.1713
M-833 1.25 uM, Pop D-C6 replicate 3
  Normalised to DMSO: 89.9209
M-833 2.5 uM, Pop D-C6 replicate 1
  Normalised to DMSO: 68.7963
M-833 2.5 uM, Pop D-C6 replicate 3
  Normalised to DMSO: 69.4664
M-833 5 uM, Pop D-C6 replicate 1
  Normalised to DMSO: 41.5972
M-833 5 uM, Pop D-C6 replicate 3
  Normalised to DMSO: 40.2668
M-833 10 uM, Pop D-C6 replicate 1
  Normalised to DMSO: 22.7778
M-833 10 uM, Pop D-C6 replicate 3
  Normalised to DMSO: 32.2628
Plasmodium falciparum, M-833 0.0390625 uM, Pop D-C6 replicate 1
  inhibition at 0.0390625 µM: -6.6%
Plasmodium falciparum, M-833 0.0390625 uM, Pop D-C6 replicate 3
  inhibition at 0.0390625 µM: -9.19%
Plasmodium falciparum, M-833 0.078125 uM, Pop D-C6 replicate 1
  inhibition at 0.078125 µM: -4.4%
Plasmodium falciparum, M-833 0.078125 uM, Pop D-C6 replicate 3
  inhibition at 0.078125 µM: -6.82%
Plasmodium falciparum, M-833 0.15625 uM, Pop D-C6 replicate 1
  inhibition at 0.15625 µM: -6.53%
Plasmodium falciparum, M-833 0.15625 uM, Pop D-C6 replicate 3
  inhibition at 0.15625 µM: -12.7%
Plasmodium falciparum, M-833 0.3125 uM, Pop D-C6 replicate 1
  inhibition at 0.3125 µM: -1.39%
Plasmodium falciparum, M-833 0.3125 uM, Pop D-C6 replicate 3
  inhibition at 0.3125 µM: 3.41%
Plasmodium falciparum, M-833 0.625 uM, Pop D-C6 replicate 1
  inhibition at 0.625 µM: 0.301%
Plasmodium falciparum, M-833 0.625 uM, Pop D-C6 replicate 3
  inhibition at 0.625 µM: 2.37%
Plasmodium falciparum, M-833 1.25 uM, Pop D-C6 replicate 1
  inhibition at 1.25 µM: 11.8%
Plasmodium falciparum, M-833 1.25 uM, Pop D-C6 replicate 3
  inhibition at 1.25 µM: 10.1%
Plasmodium falciparum, M-833 2.5 uM, Pop D-C6 replicate 1
  inhibition at 2.5 µM: 31.2%
Plasmodium falciparum, M-833 2.5 uM, Pop D-C6 replicate 3
  inhibition at 2.5 µM: 30.5%
Plasmodium falciparum, M-833 5 uM, Pop D-C6 replicate 1
  inhibition at 5 µM: 58.4%
Plasmodium falciparum, M-833 5 uM, Pop D-C6 replicate 3
  inhibition at 5 µM: 59.7%
Plasmodium falciparum, M-833 10 uM, Pop D-C6 replicate 1
  inhibition at 10 µM: 77.2%
Plasmodium falciparum, M-833 10 uM, Pop D-C6 replicate 3
  inhibition at 10 µM: 67.7%
Plasmodium falciparum, Pop D-C6 replicate 1, M-833 0.0390625 uM
  inhibition at 0.0390625 µM: -0.105%
Plasmodium falciparum, Pop D-C6 replicate 1, M-833 0.078125 uM
  inhibition at 0.078125 µM: -0.157%
Plasmodium falciparum, Pop D-C6 replicate 1, M-833 0.15625 uM
  inhibition at 0.15625 µM: 1.36%
Plasmodium falciparum, Pop D-C6 replicate 1, M-833 0.3125 uM
  inhibition at 0.3125 µM: 4.07%
Plasmodium falciparum, Pop D-C6 replicate 1, M-833 0.625 uM
  inhibition at 0.625 µM: 7.36%
Plasmodium falciparum, Pop D-C6 replicate 1, M-833 1.25 uM
  inhibition at 1.25 µM: 9.35%
Plasmodium falciparum, Pop D-C6 replicate 1, M-833 2.5 uM
  inhibition at 2.5 µM: 19.4%
Plasmodium falciparum, Pop D-C6 replicate 1, M-833 5 uM
  inhibition at 5 µM: 34.9%
Plasmodium falciparum, Pop D-C6 replicate 1, M-833 10 uM
  inhibition at 10 µM: 62%
Plasmodium falciparum, read-out: EC50 (95% confidence interval)
  EC50: 4.19 µM
Pop D-C6 replicate 1, M-833 0.0390625 uM
  Normalised to DMSO: 100.105
Pop D-C6 replicate 1, M-833 0.078125 uM
  Normalised to DMSO: 100.157
Pop D-C6 replicate 1, M-833 0.15625 uM
  Normalised to DMSO: 98.6386
Pop D-C6 replicate 1, M-833 0.3125 uM
  Normalised to DMSO: 95.9333
Pop D-C6 replicate 1, M-833 0.625 uM
  Normalised to DMSO: 92.6433
Pop D-C6 replicate 1, M-833 1.25 uM
  Normalised to DMSO: 90.6536
Pop D-C6 replicate 1, M-833 2.5 uM
  Normalised to DMSO: 80.5829
Pop D-C6 replicate 1, M-833 5 uM
  Normalised to DMSO: 65.0842
Pop D-C6 replicate 1, M-833 10 uM
  Normalised to DMSO: 37.9963
